The source of these data is EP4722212A1, “NOVEL COMPOUND FOR INHIBITING PROTEIN KINASES AND PHARMACEUTICAL COMPOSITION COMPRISING SAME” (Magicbullettherapeutics Co., Ltd., priority 2023, dated 2024).

Structures are written as SMILES.

The IC50 is the concentration needed to halve the response being measured. In general, GI50 refers to the concentration that inhibits growth by half.

In assay [1] the target is T1, ACK1 (Homo sapiens, UniProt Q07912).
T1 construct: purchased Reaction Biology (RBC)
Description: Enzyme activity inhibition (Reaction Biology). The format is biochemical. The method, then: (§1) [* <10 nM: A, <100 nM: B, >100 nM: C]. [Table 7]

In assay [2] the target is T2, BMX (Homo sapiens, UniProt P51813).
T2 construct: purchased Reaction Biology (RBC)
T2 sequence (P51813 1-675): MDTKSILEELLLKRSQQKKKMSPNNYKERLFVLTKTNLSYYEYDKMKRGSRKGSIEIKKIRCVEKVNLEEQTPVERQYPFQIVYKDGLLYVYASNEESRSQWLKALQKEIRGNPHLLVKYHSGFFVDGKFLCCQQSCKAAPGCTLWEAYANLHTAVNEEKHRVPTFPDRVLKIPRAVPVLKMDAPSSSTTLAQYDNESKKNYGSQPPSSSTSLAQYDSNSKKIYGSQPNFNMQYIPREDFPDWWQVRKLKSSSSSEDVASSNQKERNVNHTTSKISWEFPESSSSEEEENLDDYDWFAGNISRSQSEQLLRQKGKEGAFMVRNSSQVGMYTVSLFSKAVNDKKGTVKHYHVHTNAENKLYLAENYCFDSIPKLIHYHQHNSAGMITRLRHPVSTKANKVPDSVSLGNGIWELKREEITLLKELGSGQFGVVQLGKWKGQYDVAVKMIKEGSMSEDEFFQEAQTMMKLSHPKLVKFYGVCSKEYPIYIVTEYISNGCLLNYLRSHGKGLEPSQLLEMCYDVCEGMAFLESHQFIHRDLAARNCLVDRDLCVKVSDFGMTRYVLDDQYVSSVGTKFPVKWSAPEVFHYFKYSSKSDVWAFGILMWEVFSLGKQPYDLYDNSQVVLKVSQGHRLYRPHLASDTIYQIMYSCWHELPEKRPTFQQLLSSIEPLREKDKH
The assay is described as follows: Enzyme activity inhibition (Reaction Biology). The class given is biochemical. As for the experimental part: as §1

In assay [3] the target is T3, Src (Homo sapiens, UniProt P12931).
T3 construct: purchased Reaction Biology (RBC)
Description: Enzyme activity inhibition (Reaction Biology). The format is biochemical. The method, then:
as §1

Assay [4] deals with 22Rv1. The assay is described as follows: Cell line inhibition analysis (CCK-8, 72 h). The class given is cell-based. The note with it: Homo sapiens; 22Rv1, 72 hours; read-out: Cell growth inhibition GI50 22Rv1. As for the experimental part:
(§2) C4-2B and 22Rv1 cells were purchased from ATCC and cultured according to the manufacturer's instructions. The cells were seeded in 96-well plates at 7×10^3cells/100 µl/well and allowed to attach for one day. After removing the culture medium, 90 µl/well of fresh culture medium was added, followed by addition of 10 µl/well of culture medium containing compounds at nine concentrations (0.076-500 µM) serially diluted 3-fold and DMSO control to achieve final concentrations of 0-50 µM, and then cultured for 72 hours in a 37 °C CO2 incubator. Cell proliferation after 72 hours was assessed by adding 10 µl/well of CCK-8 solution, orbital shaking for 30 seconds, then incubating at 37 °C CO2 incubator for 2 hours and measuring absorbance at 450 nm using a microplate reader. The measured absorbance values were corrected by subtracting the absorbance of wells containing only culture medium and CCK-8 solution, and GI50 values were calculated using GraphPad Prism 8 software.
(§3) Meanwhile, in a separate 96-well plate, cells were seeded at 7 × 10^3 cells/100 µl/well, allowed to attach for one day, CCK-8 solution was added, and absorbance was measured to establish the 'Growth (%) = 0' value.

For assay [5], the system named is C4-2B. Description: Cell line inhibition analysis (CCK-8, 72 h). The format is cell-based. The following applies: read-out: Cell growth inhibition GI50 C4-2B. The method, then:
as §2, §3

Assay [6] concerns AsPC-1. Description: Cell line inhibition analysis (CCK-8, 72 h). The class given is cell-based. The following applies: Homo sapiens, ASPC1; read-out: Cell growth inhibition GI50 AsPC-1. As for the experimental part: as §2, §3
(§4) Furthermore, experiments were conducted on A172, A549, HCI-H460, AsPC-1, MIA-Paca-2, DLD-1, HCT-116, HT-29, SW480, SW620, MDA-MB-231, and SKOV3 cell lines using the same method, with results shown in Tables 9 and 10 below [* <1 µM: A, <5 µM: B, <10 µM: C, >10 µM: D].

In assay [7] the test system is HCT-116. The assay is described as follows: Cell line inhibition analysis (CCK-8, 72 h). The class given is cell-based. The following applies: Homo sapiens, read-out: Cell growth inhibition GI50 HCT-116. The method, then: as §2, §3, §4
The test system of assay [8] is MDA-MB-231. The assay is described as follows: Cell line inhibition analysis (CCK-8, 72 h). The class given is cell-based. The following applies: Homo sapiens, read-out: Cell growth inhibition GI50 MDA-MB-231. The method, then: as §2, §3, §4
The subject of assay [9] is SW480. Description: Cell line inhibition analysis (CCK-8, 72 h). The class given is cell-based. The note with it: Homo sapiens, read-out: Cell growth inhibition GI50 SW480. The method, then: as §2, §3, §4
Assay [10] concerns SW620. Description: Cell line inhibition analysis (CCK-8, 72 h). The note with it: Homo sapiens, SW-620; read-out: Cell growth inhibition GI50 SW620. The class given is cell-based. The method, then:
as §2, §3, §4

In assay [11] the test system is A172. Description: Cell line inhibition analysis (CCK-8, 72 h). The format is cell-based. The following applies: Homo sapiens, A 172; read-out: Cell growth inhibition GI50 A172. The method, then:
as §2, §3, §4

In assay [12] the test system is A549. The assay is described as follows: Cell line inhibition analysis (CCK-8, 72 h). The format is cell-based. The following applies: Homo sapiens, read-out: Cell growth inhibition GI50 A549. As for the experimental part: as §2, §3, §4
In assay [13] the test system is HT-29. Description: Cell line inhibition analysis (CCK-8, 72 h). The class given is cell-based. The note with it: Homo sapiens, read-out: Cell growth inhibition GI50 HT-29. The method, then: as §2, §3, §4
Assay [14] deals with DLD-1. Description: Cell line inhibition analysis (CCK-8, 72 h). The following applies: Homo sapiens, read-out: Cell growth inhibition GI50 DLD-1. The format is cell-based. The method, then:
as §2, §3, §4

The test system of assay [15] is HCI-H460. Description: Cell line inhibition analysis (CCK-8, 72 h). The class given is cell-based. The note with it: read-out: Cell growth inhibition GI50 HCI-H460. The method, then: as §2, §3, §4
The subject of assay [16] is MIA-Paca-2. The assay is described as follows: Cell line inhibition analysis (CCK-8, 72 h). The format is cell-based. The note with it: Homo sapiens, read-out: Cell growth inhibition GI50 MIA-Paca-2. The method, then:
as §2, §3, §4

The test system of assay [17] is SKOV3. The assay is described as follows: Cell line inhibition analysis (CCK-8, 72 h). The format is cell-based. The following applies: Homo sapiens, SK-OV-3; read-out: Cell growth inhibition GI50 SKOV3. As for the experimental part:
as §2, §3, §4

T1 sequence (Q07912 whole entry): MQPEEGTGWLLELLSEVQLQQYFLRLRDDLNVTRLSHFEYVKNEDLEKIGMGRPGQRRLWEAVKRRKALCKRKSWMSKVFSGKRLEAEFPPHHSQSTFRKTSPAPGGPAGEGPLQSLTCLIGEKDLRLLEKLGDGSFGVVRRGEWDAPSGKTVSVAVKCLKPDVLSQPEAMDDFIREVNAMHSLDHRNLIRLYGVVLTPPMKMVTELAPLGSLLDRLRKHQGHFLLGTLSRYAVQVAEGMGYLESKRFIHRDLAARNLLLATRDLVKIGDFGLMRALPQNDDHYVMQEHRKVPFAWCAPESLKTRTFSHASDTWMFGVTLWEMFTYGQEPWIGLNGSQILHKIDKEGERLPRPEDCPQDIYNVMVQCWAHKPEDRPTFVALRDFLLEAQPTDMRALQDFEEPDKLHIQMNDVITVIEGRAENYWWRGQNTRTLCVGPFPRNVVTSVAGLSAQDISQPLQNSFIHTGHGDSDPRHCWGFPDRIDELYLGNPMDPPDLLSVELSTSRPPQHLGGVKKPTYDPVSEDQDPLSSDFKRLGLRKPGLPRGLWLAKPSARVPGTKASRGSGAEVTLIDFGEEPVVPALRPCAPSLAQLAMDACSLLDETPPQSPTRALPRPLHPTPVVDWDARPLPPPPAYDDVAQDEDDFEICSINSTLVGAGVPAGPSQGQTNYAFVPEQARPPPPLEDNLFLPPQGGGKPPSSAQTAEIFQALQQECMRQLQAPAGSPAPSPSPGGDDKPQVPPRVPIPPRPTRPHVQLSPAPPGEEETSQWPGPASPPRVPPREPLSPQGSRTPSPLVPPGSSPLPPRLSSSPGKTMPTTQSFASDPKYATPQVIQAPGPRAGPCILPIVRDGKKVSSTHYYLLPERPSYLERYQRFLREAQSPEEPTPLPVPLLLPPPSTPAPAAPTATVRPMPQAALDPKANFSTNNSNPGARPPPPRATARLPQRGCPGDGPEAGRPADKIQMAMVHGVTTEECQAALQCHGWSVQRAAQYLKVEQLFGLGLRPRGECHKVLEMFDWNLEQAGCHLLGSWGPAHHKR
T3 sequence (P12931 whole entry): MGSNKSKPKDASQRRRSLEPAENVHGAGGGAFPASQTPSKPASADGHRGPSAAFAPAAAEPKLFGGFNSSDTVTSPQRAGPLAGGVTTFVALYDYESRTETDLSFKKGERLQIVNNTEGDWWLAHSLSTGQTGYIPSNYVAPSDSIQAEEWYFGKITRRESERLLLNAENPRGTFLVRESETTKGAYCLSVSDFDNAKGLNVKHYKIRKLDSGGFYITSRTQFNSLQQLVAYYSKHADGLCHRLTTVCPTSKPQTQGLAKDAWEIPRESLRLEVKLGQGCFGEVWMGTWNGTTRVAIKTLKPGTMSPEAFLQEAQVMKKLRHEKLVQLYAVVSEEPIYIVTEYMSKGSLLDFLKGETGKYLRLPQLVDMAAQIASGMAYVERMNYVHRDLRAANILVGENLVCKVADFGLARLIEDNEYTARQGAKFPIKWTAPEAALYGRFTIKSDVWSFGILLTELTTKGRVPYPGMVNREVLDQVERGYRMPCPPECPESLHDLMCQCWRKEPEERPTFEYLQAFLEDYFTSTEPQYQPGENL

As to `Cc1ccc(NC(=O)c2cc(F)cc(C(F)(F)F)c2)cc1N1Cc2cnc(N)nc2C2(CC2)C1=O` [Compound 7, N-(3-(2'-amino-7'-oxo-5'H-spiro[cyclopropane-1,8'-pyrido[4,3-d]pyrimidine]-6'(7'H)-yl)-4-methylphenyl)-3-fluoro-5-(trifluoromethyl)benzamide], the IC50 in assay [1], in assay [2] and in assay [3] was below 10 nM throughout. The GI50 is below 1000 nM in assay [4]; below 1000 nM in [5]; below 1000 nM in assay [6]; 1000 to 5000 nM in assay [7]; 1000 to 5000 nM in assay [8]; 1000 to 5000 nM in [9]. In assay [10], the GI50 fell in the range of 1000 to 5000 nM.

With `Cc1ccc(NC(=O)c2cccc(C(F)(F)F)c2)cc1N1Cc2cnc(Nc3cnn(CC(F)(F)F)c3)nc2C2(CC2)C1=O` [Compound 64, N-(4-methyl-3-(7'-oxo-2'-((1-(2,2,2-trifluoroethyl)-1H-pyrazol-4-yl)amino)-5'H-spiro[cyclopropane-1,8'-pyrido[4,3-d]pyrimidine]-6'(7'H)-yl)phenyl)-3-(trifluoromethyl)benzamide], the concentration for 50% growth inhibition (GI50) in [6], in assay [7], in assay [8], in [9] and in assay [10] was below 1000 nM throughout.

Consider `Cc1ccc(NC(=O)c2cccc(C(F)(F)F)c2)cc1N1Cc2cnc(NC3CC3)nc2C2(CC2)C1=O` [Compound 3, N-(3-(2'-(cyclopropylamino)-7'-oxo-5'H-spiro[cyclopropane-1,8'-pyrido[4,3-d]pyrimidine]-6'(7'H)-yl)-4-methylphenyl)-3-(trifluoromethyl)benzamide], for which the IC50 is 10 to 100 nM in assay [1], below 10 nM in assay [2] and 10 to 100 nM in [3]. In addition, the GI50 in assay [4] is above 10000 nM; in [5], 1000 to 5000 nM; in assay [6], 1000 to 5000 nM; in assay [7] it was 1000 to 5000 nM; in assay [8], 1000 to 5000 nM; in assay [9] it was 1000 to 5000 nM. Moreover, the GI50 in [10] is 1000 to 5000 nM.

`Cc1ccc(NC(=O)c2cccc(C(F)(F)F)c2)cc1N1Cc2cnc(N[C@@H](C)CO)nc2C2(CC2)C1=O` [Compound 127, (S)-N-(3-(2'-((1-hydroxypropan-2-yl)amino)-7'-oxo-5'H-spiro[cyclopropane-1,8'-pyrido[4,3-d]pyrimidine]-6'(7'H)-yl)-4-methylphenyl)-3-(trifluoromethyl)benzamide]: the results for the GI50 in assay [11], in [12] and in [13] were below 1000 nM, above 10000 nM and above 10000 nM, respectively.

For `Cc1ccc(NC(=O)c2cccc(C(F)(F)F)c2)cc1N1Cc2cnc(N)nc2C2(CC2)C1=O` [Compound 2, N-(3-(2'-amino-7'-oxo-5'H-spiro[cyclopropane-1,8'-pyrido[4,3-d]pyrimidine]-6'(7'H)-yl)-4-methylphenyl)-3-(trifluoromethyl)benzamide], the IC50 in [1], in assay [2] and in assay [3] was 10 to 100 nM each time. The concentration for 50% growth inhibition (GI50) in assay [4] is 1000 to 5000 nM; in assay [5], 1000 to 5000 nM; in [11] it was below 1000 nM; in assay [12], above 10000 nM; in assay [6], below 1000 nM; in assay [14], 1000 to 5000 nM. In addition, the GI50 is 1000 to 5000 nM in assay [15]; below 1000 nM in assay [7]; above 10000 nM in assay [13]; 1000 to 5000 nM in assay [8]; below 1000 nM in assay [16]; 1000 to 5000 nM in [17]. The 50% growth inhibitory concentration (GI50) in assay [9] and in assay [10] was 1000 to 5000 nM throughout.

Turning to `Cc1ccc(NC(=O)c2cncc(C(F)(F)F)c2)cc1N1Cc2cnc(NCCO)nc2C2(CC2)C1=O` [Compound 130, N-(3-(2'-((2-hydroxyethyl)amino)-7'-oxo-5'H-spiro[cyclopropane-1,8'-pyrido[4,3-d]pyrimidine]-6'(7'H)-yl)-4-methylphenyl)-5-(trifluoromethyl)nicotinamide], the concentration for 50% growth inhibition (GI50) in assay [11] was 1000 to 5000 nM; in [12], above 10000 nM; in assay [13] it was above 10000 nM.

Consider `Cc1ccc(NC(=O)c2cncc(C(F)(F)F)c2)cc1N1Cc2cnc(N)nc2C2(CC2)C1=O` [Compound 24, N-(3-(2'-amino-7'-oxo-5'H-spiro[cyclopropane-1,8'-pyrido[4,3-d]pyrimidine]-6'(7'H)-yl)-4-methylphenyl)-5-(trifluoromethyl)nicotinamide], for which the half-inhibitory concentration (IC50) in assay [1], in assay [2] and in assay [3] was below 10 nM throughout. Moreover, the concentration for 50% growth inhibition (GI50) in [4] is 5000 to 10000 nM; in assay [5], 1000 to 5000 nM; in [11] it was below 1000 nM; in [12], above 10000 nM; in [6] it was 1000 to 5000 nM; in assay [14] it was 1000 to 5000 nM. For the same molecule, the GI50 in [15] is 1000 to 5000 nM; in assay [7] it was below 1000 nM; in assay [13], above 10000 nM; in assay [8], 1000 to 5000 nM; in [16], 1000 to 5000 nM; in assay [17] it was 1000 to 5000 nM. The GI50 in assay [9] is 1000 to 5000 nM; in assay [10], below 1000 nM.

In the case of `Cc1ccc(NC(=O)c2cccc(C(F)(F)F)c2)cc1N1Cc2cnc(NCCO)nc2C2(CC2)C1=O` [Compound 126, N-(3-(2'-((2-hydroxyethyl)amino)-7'-oxo-5'H-spiro[cyclopropane-1,8'-pyrido[4,3-d]pyrimidine]-6'(7'H)-yl)-4-methylphenyl)-3-(trifluoromethyl)benzamide], the concentration for 50% growth inhibition (GI50) in assay [11] was in the range of 1000 to 5000 nM; in assay [12], 1000 to 5000 nM; in assay [13], 5000 to 10000 nM.

With `Cc1ccc(NC(=O)c2cncc(C(F)(F)F)c2)cc1N1Cc2cnc(N[C@@H](C)CO)nc2C2(CC2)C1=O` [Compound 131, (S)-N-(3-(2'-((1-hydroxypropan-2-yl)amino)-7'-oxo-5'H-spiro[cyclopropane-1,8'-pyrido[4,3-d]pyrimidine]-6'(7'H)-yl)-4-methylphenyl)-5-(trifluoromethyl)nicotinamide], the GI50 in assay [11] was 1000 to 5000 nM; in assay [12] it was above 10000 nM; in assay [13], above 10000 nM.
